According to US20240199623A1 (ILDONG PHARMACEUTICAL CO., LTD., priority 2020, published 2024):

The compounds below were run against human wild type-CFTR (Homo sapiens, UniProt P13569) (assay: Cell-based YFP assay). Details: CHO-K1 cells expressing human wild type-CFTR and YFP-H148Q/I152L; forskolin 20 μM = 100% activity; read-out: Cell-based YFP Assay (EC50) Concentration Range.
Parameters: expressed in transfected cells; host or cells: CHO-K1 (Chinese hamster ovary)
Summary of the method: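 CHO-K1 cells co-expressing human wild-type CFTR and YFP-H148Q/I152L halide sensor, grown 48 h at 37 °C, then in PBS. YFP quenching by I⁻ influx read at 37 °C after adding 140 mM I⁻ solution, sampled every 0.4 s for 14 s. Triplicates averaged; EC50 fitted.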

Chain of human wild type-CFTR (P13569 whole entry): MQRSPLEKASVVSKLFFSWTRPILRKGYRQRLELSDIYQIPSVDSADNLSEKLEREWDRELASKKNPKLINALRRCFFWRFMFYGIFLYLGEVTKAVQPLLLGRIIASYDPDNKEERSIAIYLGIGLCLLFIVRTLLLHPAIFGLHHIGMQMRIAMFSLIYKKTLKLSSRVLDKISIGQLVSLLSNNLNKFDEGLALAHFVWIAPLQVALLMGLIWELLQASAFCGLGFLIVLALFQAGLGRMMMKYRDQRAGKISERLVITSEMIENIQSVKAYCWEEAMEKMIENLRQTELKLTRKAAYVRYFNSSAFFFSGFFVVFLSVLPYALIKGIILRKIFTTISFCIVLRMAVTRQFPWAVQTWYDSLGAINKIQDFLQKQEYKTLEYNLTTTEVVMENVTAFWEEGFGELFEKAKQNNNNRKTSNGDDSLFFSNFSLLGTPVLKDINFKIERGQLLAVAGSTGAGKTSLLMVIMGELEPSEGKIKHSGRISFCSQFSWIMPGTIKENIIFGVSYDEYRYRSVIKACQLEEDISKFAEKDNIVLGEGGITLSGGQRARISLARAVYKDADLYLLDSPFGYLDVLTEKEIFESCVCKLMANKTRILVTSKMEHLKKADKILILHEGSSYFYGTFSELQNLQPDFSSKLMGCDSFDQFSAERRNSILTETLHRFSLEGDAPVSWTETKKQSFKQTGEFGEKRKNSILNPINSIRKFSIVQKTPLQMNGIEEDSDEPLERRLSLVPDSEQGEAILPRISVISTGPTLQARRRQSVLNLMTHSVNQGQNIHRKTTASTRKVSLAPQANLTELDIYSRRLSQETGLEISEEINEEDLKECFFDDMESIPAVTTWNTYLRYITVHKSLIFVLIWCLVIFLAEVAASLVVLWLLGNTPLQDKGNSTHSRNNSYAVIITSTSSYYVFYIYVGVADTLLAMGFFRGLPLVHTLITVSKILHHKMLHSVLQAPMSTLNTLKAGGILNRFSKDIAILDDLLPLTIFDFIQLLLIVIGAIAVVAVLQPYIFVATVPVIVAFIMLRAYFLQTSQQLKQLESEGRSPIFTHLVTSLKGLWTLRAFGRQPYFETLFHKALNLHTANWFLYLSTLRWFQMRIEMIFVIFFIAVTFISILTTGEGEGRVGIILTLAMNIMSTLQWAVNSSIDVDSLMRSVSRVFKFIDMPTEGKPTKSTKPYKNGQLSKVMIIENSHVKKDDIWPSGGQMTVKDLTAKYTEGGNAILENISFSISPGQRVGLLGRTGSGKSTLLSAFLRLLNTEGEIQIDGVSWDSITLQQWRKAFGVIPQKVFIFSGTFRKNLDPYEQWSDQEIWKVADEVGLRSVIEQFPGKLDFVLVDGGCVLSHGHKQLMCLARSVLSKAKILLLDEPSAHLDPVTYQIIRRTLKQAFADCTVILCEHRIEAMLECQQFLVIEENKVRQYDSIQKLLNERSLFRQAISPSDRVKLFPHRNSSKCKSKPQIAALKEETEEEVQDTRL

Structure (SMILES) | EC50
COc1ccc(-c2ccnc3cc(C(=O)Nc4ccc(C(=O)OCCN5CCOCC5)cn4)nn23)cc1OC [Compound 242, 2-morpholinoethyl 6-(7-(3,4-dimethoxyphenyl)pyrazolo [1,5-a]pyrimidine-2-carboxamido)nicotinate] | < 200 nM
COc1ccc(-c2ccnc3cc(C(=O)Nc4ccc(CN5CCN(C)CC5)cc4)nn23)cc1OC [Compound 243, 7-(3,4-dimethoxyphenyl)-N-(4-((4-methylpiperazin-1-yl)methyl)phenyl)pyrazolo [1,5-a]pyrimidine-2-carboxamide] | 200 to 2000 nM
COc1ccc(-c2ccnc3cc(C(=O)Nc4ccc(CN5CCOCC5)cc4)nn23)cc1OC [Compound 244, 7-(3,4-dimethoxyphenyl)-N-(4-(morpholinomethyl)phenyl) pyrazolo[1,5-a]pyrimidine-2-carboxamide] | < 200 nM
COc1ccc(-c2ccnc3cc(C(=O)NCc4ccc(N5CCN(C)CC5)cc4)nn23)cc1OC [Compound 245, 7-(3,4-dimethoxyphenyl)-N-(4-(4-methylpiperazin-1-yl)benzyl)pyrazolo[1,5-a]pyrimidine-2-carboxamide] | ≥ 2000 nM
COc1ccc(-c2ccnc3cc(C(=O)NCc4ccc(N5CCOCC5)cc4)nn23)cc1OC [Compound 246, 7-(3,4-dimethoxyphenyl)-N-(4-morpholinobenzyl)pyrazolo [1,5-a]pyrimidine-2-carboxamide] | 200 to 2000 nM
COc1ccc(-c2ccnc3cc(C(=O)N[C@H]4CC[C@@H](C(=O)OCc5ccccn5)CC4)nn23)cc1OC [Compound 247, pyridin-2-ylmethyl (1S,4S)-4-(7-(3,4-dimethoxyphenyl)pyrazolo [1,5-a]pyrimidine-2-carboxamido)cyclohexane-1-carboxylate] | 200 to 2000 nM
COc1ccc(-c2ccnc3cc(C(=O)N(C)c4ccc(C(=O)N5CCN(C)CC5)cc4)nn23)cc1OC [Compound 248, 7-(3,4-dimethoxyphenyl)-N-methyl-N-(4-(4-methylpiperazine-1-carbonyl)phenyl)pyrazolo [1,5-a]pyrimidine-2-carboxamide] | ≥ 2000 nM
COc1ccc(-c2ccnc3cc(C(=O)N(C)c4ccc(C(=O)N5CCOCC5)cc4)nn23)cc1OC [Compound 249, 7-(3,4-dimethoxyphenyl)-N-methyl-N-(4-(morpholine-4-carbonyl)phenyl)pyrazolo[1,5-a]pyrimidine-2-carboxamide] | ≥ 2000 nM
COc1ccc(-c2ccnc3cc(C(=O)N4CCc5cc(C(=O)N6CCN(C)CC6)ccc54)nn23)cc1OC [Compound 250, (7-(3,4-dimethoxyphenyl)pyrazolo[1,5-a]pyrimidin-2-yl)(5-(4-methylpiperazine-1-carbonyl)indolin-1-yl) methanone] | 200 to 2000 nM
COc1ccc(-c2ccnc3cc(C(=O)N4CCc5cc(C(=O)N6CCOCC6)ccc54)nn23)cc1OC [Compound 251, (7-(3,4-dimethoxyphenyl)pyrazolo[1,5-a]pyrimidin-2-yl)(5-(morpholine-4-carbonyl)indolin-1-yl) methanone] | 200 to 2000 nM
COc1ccc(-c2ccnc3cc(C(=O)N4CCc5ccc(C(=O)N6CCN(C)CC6)cc54)nn23)cc1OC [Compound 252, (7-(3,4-dimethoxyphenyl)pyrazolo[1,5-a]pyrimidin-2-yl)(6-(4-methylpiperazine-1-carbonyl)indolin-1-yl)methanone] | ≥ 2000 nM
COc1ccc(-c2ccnc3cc(C(=O)N4CCc5ccc(C(=O)N6CCOCC6)cc54)nn23)cc1OC [Compound 253, (7-(3,4-dimethoxyphenyl)pyrazolo[1,5-a]pyrimidin-2-yl)(6-(morpholine-4-carbonyl)indolin-1-yl) methanone] | 200 to 2000 nM
CCOc1ccc(NC(=O)c2cc3ncc(-c4ccc(OC)c(OC)c4)cn3n2)cc1 [Compound 254, 6-(3,4-dimethoxyphenyl)-N-(4-ethoxyphenyl)pyrazolo[1,5-a]pyrimidine-2-carboxamide] | ≥ 2000 nM
COc1ccc(-c2ccnc3cc(C(=O)NC45CCC(C(=O)OCCCN6CCOCC6)(CC4)CC5)nn23)cc1OC [Compound 255, 3-morpholinopropyl 4-(7-(3,4-dimethoxyphenyl)pyrazolo [1,5-a]pyrimidine-2-carboxamido)bicyclo[2.2.2] octane-1-carboxylate] | < 200 nM
COc1ccc(-c2ccnc3cc(C(=O)Nc4ccc(NC(=O)CN(C)C)cc4)nn23)cc1OC [Compound 258, 7-(3,4-dimethoxyphenyl)-N-(4-(2-(dimethylamino)acetamido)phenyl)pyrazolo[1,5-a]pyrimidine-2-carboxamide] | < 200 nM
COc1ccc(-c2ccnc3cc(C(=O)N4CCN(C(=O)c5ccccc5Cl)[C@@H](C)C4)nn23)cc1OC [Compound 260, (S)-(4-(2-chlorobenzoyl)-3-methylpiperazin-1-yl) (7-(3,4-dimethoxyphenyl)pyrazolo[1,5-a]pyrimidin-2-yl)methanone] | 200 to 2000 nM
COc1ccc(-c2ccnc3cc(C(=O)N4CCN(C(=O)c5cccc(Cl)c5)[C@@H](C)C4)nn23)cc1OC [Compound 261, (S)-(4-(3-chlorobenzoyl)-3-methylpiperazin-1-yl) (7-(3,4-dimethoxyphenyl)pyrazolo[1,5-a]pyrimidin-2-yl)methanone] | 200 to 2000 nM
COc1ccc(-c2ccnc3cc(C(=O)N4CCN(C(=O)c5ccc(Cl)cc5)[C@@H](C)C4)nn23)cc1OC [Compound 262, (S)-(4-(4-chlorobenzoyl)-3-methylpiperazin-1-yl) (7-(3,4-dimethoxyphenyl)pyrazolo[1,5-a]pyrimidin-2-yl)methanone] | 200 to 2000 nM
COc1ccc(-c2ccnc3cc(C(=O)N4CCN(C(=O)c5cccc(F)c5)[C@@H](C)C4)nn23)cc1OC [Compound 263, (S)-(7-(3,4-dimethoxyphenyl)pyrazolo[1,5-a]pyrimidin-2-yl)(4-(3-fluorobenzoyl)-3-methylpiperazin-1-yl) methanone] | 200 to 2000 nM
COc1ccc(-c2ccnc3cc(C(=O)Nc4ccc(C(=O)N5CCOCC5)nc4)nn23)cc1OC [Compound 264, 7-(3,4-dimethoxyphenyl)-N-(6-(morpholine-4-carbonyl)pyridin-3-yl) pyrazolo[1,5-a]pyrimidine-2-carboxamide] | ≥ 2000 nM
COc1ccc(-c2ccnc3cc(C(=O)Nc4ccc(C(=O)N5CCN(C)CC5)nc4)nn23)cc1OC [Compound 265, 7-(3,4-dimethoxyphenyl)-N-(6-(4-methylpiperazine-1-carbonyl)pyridin-3-yl)pyrazolo[1,5-a] pyrimidine-2-carboxamide] | ≥ 2000 nM
COc1ccc(-c2ccnc3cc(C(=O)Nc4ccc(N5CCN(C(C)C)CC5)cc4)nn23)cc1OC [Compound 266, 7-(3,4-dimethoxyphenyl)-N-(4-(4-isopropylpiperazin-1-yl)phenyl)pyrazolo[1,5-a]pyrimidine-2-carboxamide] | < 200 nM

Results, then the compound that gave them:

EC50 | Structure (SMILES)
< 200 nM | COc1ccc(-c2ccnc3cc(C(=O)Nc4ccc(F)cc4)nn23)cc1OC [Compound 267, 7-(3,4-dimethoxyphenyl)-N-(4-fluorophenyl)pyrazolo[1,5-a]pyrimidine-2-carboxamide]
< 200 nM | COc1ccc(-c2ccnc3cc(C(=O)Nc4ccc(Br)cc4)nn23)cc1OC [Compound 268, N-(4-bromophenyl)-7-(3,4-dimethoxyphenyl)pyrazolo [1,5-a]pyrimidine-2-carboxamide]
< 200 nM | COc1ccc(-c2ccnc3cc(C(=O)Nc4ccc(N5CCCCC5)cc4)nn23)cc1OC [Compound 269, 7-(3,4-dimethoxyphenyl)-N-(4-(piperidin-1-yl)phenyl)pyrazolo [1,5-a]pyrimidine-2-carboxamide]
< 200 nM | CCN1CCN(c2ccc(NC(=O)c3cc4nccc(-c5ccc(OC)c(OC)c5)n4n3)cc2)CC1 [Compound 270, 7-(3,4-dimethoxyphenyl)-N-(4-(4-ethylpiperazin-1-yl)phenyl)pyrazolo[1,5-a]pyrimidine-2-carboxamide]
< 200 nM | COc1ccc(-c2ccnc3cc(C(=O)Nc4ccc(C(=O)OCCN5CCN(C(=O)OC(C)(C)C)CC5)cc4)nn23)cc1OC [Compound 275, tert-butyl 4-(2-((4-(7-(3,4-dimethoxyphenyl)pyrazolo [1,5-a]pyrimidine-2-carboxamido)benzoyl)oxy)ethyl)piperazine-1-carboxylate]
≥ 2000 nM | COc1ccc(-c2ccnc3cc(C(=O)Nc4ccc(C(=O)O)c(F)c4)nn23)cc1OC [Compound 278, 4-(7-(3,4-dimethoxyphenyl)pyrazolo[1,5-a]pyrimidine-2-carboxamido)-2-fluorobenzoic acid]
≥ 2000 nM | COc1ccc(-c2ccnc3cc(C(=O)Nc4ccc(C(=O)O)c(Cl)c4)nn23)cc1OC [Compound 279, 2-chloro-4-(7-(3,4-dimethoxyphenyl)pyrazolo [1,5-a]pyrimidine-2-carboxamido)benzoic acid]
< 200 nM | COc1ccc(-c2ccnc3cc(C(=O)Nc4ccc(N5CCNCC5)cn4)nn23)cc1OC [Compound 286, 7-(3,4-dimethoxyphenyl)-N-(5-(piperazin-1-yl)pyridin-2-yl)pyrazolo [1,5-a]pyrimidine-2-carboxamide]
≥ 2000 nM | COc1ccc(-c2ccnc3cc(NC(=O)C45CCC(N6CCOCC6)(CC4)CC5)nn23)cc1OC [Compound 288, N-(7-(3,4-dimethoxyphenyl)pyrazolo[1,5-a]pyrimidin-2-yl)-4-morpholinobicyclo[2.2.2]octane-1-carboxamide]
200 to 2000 nM | COc1ccc(-c2ccnc3cc(C(=O)Nc4ccc(OC(C)C)cc4)nn23)cc1OC [Compound 290, 7-(3,4-dimethoxyphenyl)-N-(4-isopropoxyphenyl)pyrazolo [1,5-a]pyrimidine-2-carboxamide]
≥ 2000 nM | COc1ccc(-c2ccnc3cc(C(=O)Nc4cc(C(F)(F)F)cc(C(F)(F)F)c4)nn23)cc1OC [Compound 291, N-(3,5-bis(trifluoromethyl)phenyl)-7-(3,4-dimethoxyphenyl)pyrazolo [1,5-a]pyrimidine-2-carboxamide]
